Reference: PubChem BioAssay (NCI)
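Five compound concentrations were applied to cells in 96-well plates for 48 hours; endpoints were derived by simple linear interpolation of the resulting dose-response curve. At the TGI there is no net growth.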

Experiments:
Assay in all cases: NCI anticancer screen, dose series, 48 h
[1] = test system: IGROV1 ovarian
[2] = test system: HOP-92 NSCLC
[3] = test system: CCRF-CEM leukemia
[4] = test system: UO-31 renal
[5] = test system: NCI-H23 lung
[6] = test system: OVCAR-4 ovarian
[7] = test system: M19-MEL melanoma
[8] = test system: HCC-2998 colon
[9] = test system: SF-268 CNS
[10] = test system: MALME-3M melanoma
[11] = test system: HCT-15 colon
[12] = test system: SNB-19 CNS
[13] = test system: SF-295 CNS
[14] = test system: 786-0 renal
[15] = test system: UACC-62 melanoma
[16] = test system: COLO 205 colon
[17] = test system: RXF 393 renal
[18] = test system: KM12 colon
[19] = test system: HL-60(TB) leukemia
[20] = test system: ACHN renal
[21] = test system: HOP-62 NSCLC
[22] = test system: A549 NSCLC
[23] = test system: NCI-H460 lung
[24] = test system: A498 renal
[25] = test system: TK-10 renal
[26] = test system: SW-620 colon
[27] = test system: RPMI-8226 leukemia
[28] = test system: SK-OV-3 ovarian
[29] = test system: SNB-75 CNS
[30] = test system: UACC-257 melanoma
[31] = test system: U251 CNS
[32] = test system: HCT-116 colon
[33] = test system: OVCAR-8 ovarian
[34] = test system: DMS 114 small cell lung
[35] = test system: M14 melanoma
[36] = test system: OVCAR-5 ovarian
[37] = test system: K-562 leukemia
[38] = test system: MOLT-4 leukemia
[39] = test system: SK-MEL-5 melanoma
[40] = test system: EKVX NSCLC
[41] = test system: DLD-1 colon
[42] = test system: SF-539 CNS
[43] = test system: OVCAR-3 ovarian
[44] = test system: RXF-631 renal
[45] = test system: SNB-78 CNS
[46] = test system: SK-MEL-28 melanoma
[47] = test system: KM20L2 colon
[48] = test system: LXFL 529 NSCLC
[49] = test system: NCI-H522 lung
[50] = test system: SK-MEL-2 melanoma
[51] = test system: PC-3 prostate
[52] = test system: LOX IMVI melanoma
[53] = test system: HOP-18 NSCLC
[54] = test system: DMS 273 small cell lung
[55] = test system: SR leukemia
[56] = test system: T-47D breast
[57] = test system: MDA-MB-435
[58] = test system: HS 578T breast
[59] = test system: HT29 colon
[60] = test system: MDA-MB-231 breast
[61] = test system: NCI-H226 lung
[62] = test system: CAKI-1 renal
[63] = test system: XF 498 CNS
[64] = test system: BT-549 breast
[65] = test system: DU-145 prostate
[66] = test system: NCI/ADR-RES ovarian
[67] = test system: MCF7 breast
[68] = test system: SN12C renal

O=C(Cc1cc[n+]([O-])cc1)C(=O)Nc1cc(Cl)c(Cl)cc1Cl
TGI [1]: > 100 µM | TGI [2]: > 100 µM | TGI [3]: > 100 µM | TGI [4]: > 100 µM | TGI [5]: > 100 µM | TGI [6]: > 100 µM | TGI [7]: > 100 µM | TGI [8]: > 100 µM | TGI [9]: > 100 µM | TGI [10]: > 100 µM | TGI [11]: > 100 µM | TGI [12]: > 100 µM | TGI [13]: > 100 µM | TGI [14]: > 100 µM | TGI [15]: > 100 µM | TGI [16]: > 100 µM | TGI [17]: > 100 µM | TGI [18]: > 100 µM | TGI [19]: > 100 µM | TGI [20]: > 100 µM | TGI [21]: > 100 µM | TGI [22]: > 100 µM | TGI [23]: > 100 µM | TGI [24]: > 100 µM | TGI [25]: > 100 µM | TGI [26]: > 100 µM | TGI [27]: > 100 µM | TGI [28]: > 100 µM | TGI [29]: > 100 µM | TGI [30]: > 100 µM | TGI [31]: > 100 µM | TGI [32]: > 100 µM | TGI [33]: > 100 µM | TGI [34]: > 100 µM | TGI [35]: > 100 µM | TGI [36]: > 100 µM | TGI [37]: > 100 µM | TGI [38]: > 100 µM | TGI [39]: > 100 µM | TGI [40]: > 100 µM | TGI [41]: > 100 µM | TGI [42]: > 100 µM | TGI [43]: > 100 µM | TGI [44]: > 100 µM | TGI [45]: > 100 µM | TGI [46]: > 100 µM | TGI [47]: > 100 µM | TGI [48]: > 100 µM | TGI [49]: > 100 µM | TGI [50]: > 100 µM

NC(N)=NS(=O)(=O)c1ccc(NC(=O)c2cccc3c(=O)c4ccccc4[nH]c23)cc1
TGI [1]: > 100 µM | TGI [2]: > 96.2 µM | TGI [3]: > 31.6 µM | TGI [4]: > 100 µM | TGI [5]: > 100 µM | TGI [51]: > 100 µM | TGI [6]: > 100 µM | TGI [7]: > 100 µM | TGI [8]: > 100 µM | TGI [52]: > 100 µM | TGI [9]: > 100 µM | TGI [10]: > 100 µM | TGI [11]: > 100 µM | TGI [53]: > 100 µM | TGI [12]: > 100 µM | TGI [54]: > 100 µM | TGI [13]: > 100 µM | TGI [55]: > 100 µM | TGI [14]: > 92.6 µM | TGI [56]: > 100 µM | TGI [57]: > 100 µM | TGI [15]: > 100 µM | TGI [16]: > 100 µM | TGI [17]: > 80.3 µM | TGI [58]: > 100 µM | TGI [18]: > 100 µM | TGI [19]: > 100 µM | TGI [59]: > 100 µM | TGI [20]: > 100 µM | TGI [21]: > 100 µM | TGI [22]: > 100 µM | TGI [23]: > 100 µM | TGI [24]: > 100 µM | TGI [25]: > 81.2 µM | TGI [26]: > 100 µM | TGI [27]: > 100 µM | TGI [28]: > 91.9 µM | TGI [29]: 51.3 µM | TGI [30]: > 100 µM | TGI [31]: 69.2 µM | TGI [60]: > 100 µM | TGI [32]: > 100 µM | TGI [33]: > 100 µM | TGI [34]: > 100 µM | TGI [35]: > 100 µM | TGI [61]: > 100 µM | TGI [62]: > 100 µM | TGI [63]: > 100 µM | TGI [36]: > 100 µM | TGI [37]: > 56.2 µM | TGI [64]: > 100 µM | TGI [38]: > 100 µM | TGI [65]: > 100 µM | TGI [39]: > 100 µM | TGI [66]: > 100 µM | TGI [67]: > 100 µM | TGI [40]: > 100 µM | TGI [68]: > 100 µM | TGI [41]: > 100 µM | TGI [42]: > 100 µM | TGI [43]: > 100 µM | TGI [45]: > 100 µM | TGI [46]: > 100 µM | TGI [47]: > 100 µM | TGI [48]: > 100 µM | TGI [49]: > 100 µM | TGI [50]: > 100 µM
